In patent US5545648A (Canadian Spinal Research Organization, priority 1992, dated 1996):
“And” between values parts separate entries of the source, which are not always exact repeats. Identical values can stand only once. “Also recorded” adds a separate entry of the source.

Assays:
[1] = Plasma levels of 4-AP after intravenous infusion (column liquid chromatography); format: in vivo, human
Procedure: The drug was obtained in purified powder form from the Regis Chemical Company (Morton Grove, Ill.) and prepared as an injectable solution, using a 0.9% saline vehicle (Uges and Huizinga, 1981), by the pharmacy of St. Joseph's Hospital. The pharmacy was also responsible for testing pyrogenicity, randomizing the order in which drug and vehicle were administered to different patients, and for providing an escalating scale of dosage during the course of the study. The 4-AP for the first two patients was prepared at a concentration of 3 mg/ml, and the concentration was increased to 4 and 5 mg/ml for succeeding subjects (see Table 1). The drug was further diluted by a factor of 50 times in dextrose saline before delivery, and was administered in the form of a continuous intravenous infusion at a rate of 150 ml/hr controlled by a peristaltic infusion pump. Therefore the delivery rate of the drug increased from 9 mg/hr in the first two patients to 15 mg/hr in the last four. Total intended dosage ranged from 18 to 30 mg. The vehicle control was indistinguishable from the drug solution and was delivered in an identical manner.
(§1) The schedule of each trial was the same. The patient was admitted to the hospital on the preceding day and in the early morning was assessed by neurological examination and electro-diagnostic evaluation. Administration of the drug or placebo, through an in dwelling venous catheter, was then begun and continued for approximately 2 hours, arranged in 20 minute sequences based on delivery of 1 ml aliquots of the 4-AP solution. The patient was monitored electroencephalographically at frequent intervals throughout the procedure. Samples of blood and urine were obtained from an additional intravenous catheter and from the urinary catheter respectively. Blood was obtained at intervals up to 5 hours from the beginning of drug delivery and urine obtained pre-infusion and at 1 and 2 hours after the beginning of infusion. The patients were re-evaluated by complete neurological examination, by the same examiner, at the end of the period of drug delivery. They were then re-examined with the electrodiagnostic tests. A more limited neurological examination was sometimes performed during drug delivery in an attempt to identify any early changes, without producing significant testing fatigue. The electrodiagnostic tests were repeated at 2 hours after the cessation of drug delivery. Patients showing apparent effects of the treatment remained in the hospital overnight and were examined on the following day. Subsequent contact with the patients was by telephone interview or as a result of their correspondence regarding longer term changes associated with their treatment.
(§2) Two of the patients who reported more prolonged effects of the drug were returned to the hospital after 4 months for a second, unblinded trial, which included neurological examinations daily for 3-4 days. Plasma samples were also obtained daily from these two patients, for measurement of 4-AP.
Measurement of 4-AP in plasma and urine
Samples of blood were collected from an in dwelling venous catheter in the arm opposite that into which the drug was delivered. Ten or eleven such samples were obtained at intervals up to 5 hours after the initiation of drug delivery (see FIG. 1). Urine samples were withdrawn from the patients' urinary catheter bags at 1 and 2 hours after the initiation of drug infusion.
Plasma and urine samples were stored at -80° C. until 4-AP levels were analyzed by means of column liquid chromatography, according to a technique described in detail elsewhere (Kostka et al, 1992). Briefly, both plasma and urine samples were subjected to benzoylation by the Schotten-Baumann reaction to convert 4-AP to N-benzoyl-4-AP (Bz4-AP) prior to liquid-liquid -extraction. Propionyl procainamide (PPA) was chosen as the internal standard. […]

[2] = test system: spinal cord injured patients; experiment: Deep tendon (segmental) reflex score; format: in vivo, human
Procedure: as §1
Segmental reflexes (biceps, triceps, knee- and ankle-jerk) were evaluated in the conventional manner with a reflex hammer and scored on a 0-4 point scale:
0--no detectable response
2--brisk response of normal amplitude
3--abnormally large amplitude response
4--large amplitude response with some clonus.
The total possible score in a patient with hyperreflexia and clonus in all tested muscles was 32.

[3] = test system: spinal cord injured patients; experiment: Effects reported by the subjects and overall clinical benefit (function, chronic pain, spasticity); format: in vivo, human
Procedure: The experimental design was a double-blind, placebo-controlled, crossover study in which each patient was administered the drug and a vehicle control on different occasions, separated by two weeks. The order of delivery was randomized.
as §1, §2

[4] = test system: multiple sclerosis patients; details: cited from earlier work
[5] = 2 hours after infusion of 4-AP, total of subjects

Nc1ccncc1 [4-AP, 4-aminopyridine]
plasma level of 4-AP after end of infusion ([1]; 2-3 hours after the end of infusion, all subjects): significant plasma level | plasma level remaining relative to peak level ([1]; by 2 days after the infusion, from rate of decline in two patients): less than 1% | correlation of peak plasma level with dose administered ([1]; dose in mg/kg/hr (FIG. 2)): correlated significantly | concentration at 48 h ([1]; human, plasma, iv, 48 hours / 2 days after second, unblinded administration, subjects, read-out: 4-AP plasma concentration (below limit of detection)): < 3 ng/mL | time of peak level in the circulation ([1]; i.v. infusion approximately 2 hours): slightly before or after the end of the infusion period | peak plasma level achieved for each mg/kg infused ([1]; i.v. infusion over approximately 2 hours, least squares regression, per mg/kg): approximately 0.27 mg/l | plasma level of 4-AP the day after infusion ([1]; second administration, two subjects): detectable levels of the drug in the plasma the day after infusion | correlation of time course of elimination with prolonged neurological effects ([1]; two subjects, 3-4 days): clearly did not correlate | oscillation of measured drug levels ([1]; up to 5 hours from start of infusion, most subjects): some degree of oscillation of the measured drug levels; also recorded: oscillation in the measured drug levels | deep tendon reflex scores at 24 and 48 hours ([2]; 24 and 48 hours, EB, GCh): slight reductions in deep tendon reflex scores at 24 and 48 hours after infusion | change in score for deep tendon reflexes, arms, TOTAL [2, 5]: +13 | change in score for deep tendon reflexes, legs, TOTAL [2, 5]: +2 | change in score for deep tendon reflexes, legs ([2]; 2 hours after infusion of 4-AP, total possible 32, subject one, SC, HT, GCh, AW, GCu): +2 and +1 and -2 and 0 and +3 | change in score for deep tendon reflexes, arms ([2]; 2 hours after infusion of 4-AP, total possible 32, subject one, SC, HT, GCh, GCu): +4 and +1 and 0 | reflex responses at 24 hours ([2]; 24 hours, AW, LJ): reduced reflex responses | deep tendon reflex amplitude immediately after infusion ([2]; predominantly in the arms): marked tendency for increase in amplitude of deep tendon reflexes | reproduction of effects at second administration ([3]; 4 months later, two subjects GCh, EB): effects and side effects similar to those seen in the earlier, blinded administration; also recorded: the effects were reproduced by a second administration of the drug 4 months later in two of the subjects | return to usual state ([3]; after infusion, subject gamma): ≤ 3 days | increase in strength of arms and right leg, reported by subject ([3]; day after infusion, subject beta): about 25% | delayed or prolonged effects reported ([3]; five patients with less complete injuries): all reported some delayed or prolonged effects | duration of self-sustaining changes in the nervous system ([3]; human, in vivo): 1 to 2 days | patients desiring to receive the drug regularly ([3]; human, in vivo): four of the patients expressed a strong desire to be able to receive the drug on a regular basis | reduced usage of analgesic ([3]; human, in vivo): greatly reduced usage of analgesic in one case | reduced usage of antispastic medication ([3]; human, in vivo): antispastic medication in at least two cases | relation between side-effects and apparent benefit ([3]; human, in vivo): no relation between the appearance of side-effects and apparent benefit | motor and/or sensory effects in incomplete injuries ([3]; remaining 5 subjects): showed motor and/or sensory effects | duration of markedly reduced spasticity ([3]; second infusion, subject gamma): more than 24 hours | duration of improved function ([3]; some subjects): over 48 hours | reduction of chronic pain and spasticity, motor control and sensory ability (overall) ([3]; spinal cord injured individuals): relief of chronic pain and spasticity; also recorded: can increase motor control and sensory ability and reduce chronic pain and spasticity; also recorded: long lasting reductions in spasticity and in chronic pain and dysesthesias; also recorded: shown to reduce chronic pain and spasticity in certain individuals | proportion of patients with incomplete injury showing benefit ([3]; spinal cord injury patients): 5 of 6 and 5 of the 6 | duration of reduction in spasticity ([3]; subject four): three days | dysesthesia (persistent itch in one shoulder) ([3]; subject four): no change in this condition | return to normal requirement for Baclofen ([3]; subject four): only returned to their normal requirement for Baclofen on the fourth day | finger movements back and forth, left hand ([3]; subject four, normally a few flickers): 20-30 times | duration of absence of pain in the legs ([3]; subject gamma): at least 2 days | sensation, reported by subject ([3]; subject named in the block (LJ; EB; GCh; AW)): more sensation below the level of injury; also recorded: remarkable return of sensation below the level of the injury to virtually normal sensation on both sides; also recorded: marked improvement in sensation below the lesion; also recorded: increased sensation; also recorded: more sensation and strength in their legs | chronic pain / paresthesia, reported by subject ([3]; subject named in the block (LJ; GCh; GCu)): The usual burning pain they experienced in their buttocks was absent, though there was still some burning in their lower limbs, which had increased; also recorded: the pain in the legs was absent, though it remained to some extent in their feet; also recorded: reduction of chronic pain; also recorded: significant reduction in the usual tingling paresthesia in their hands | movement / motor power, reported by subject ([3]; subject named in the block (b79 LJ; b81 EB; b83, b84 GCh; b86 AW; b88 GCu)): slightly greater movement in one thumb and index finger; also recorded: increased motor power in the left arm and leg; also recorded: greater endurance; also recorded: motor endurance below the level of the injury; also recorded: improved strength and sensation in their legs; also recorded: their arms and right leg had been stronger | spasticity ([3]; subject named in the block (b81 EB; b83, b84 GCh)): marked reduction in spasticity; also recorded: decrease in spasticity | breathing ([3]; subject two): marked improvement in breathing | duration of motor and sensory effects incl. improved breathing ([3]; subject two): about 2 days | infused dose at which lower limb strength increased ([3]; subject two): 8 mg | relief of chronic, painful dysesthesias below the lesion ([3]; subjects, predominantly proximal in the limb): considerable relief | beneficial effects in neurologically complete lesions ([3]; two patients): Two patients with neurologically "complete" spinal cord lesions showed no beneficial effects | motor strength and sensory deficits [4]: selective increases in motor strength and recovery of sensory deficits
